The source of these data is ChEMBL document CHEMBL4371042, “Molecular Mechanism of Inhibition of Acid Ceramidase by Carmofur” (J Med Chem, 2019).

The assay deals with T1, Acid ceramidase (Homo sapiens, UniProt Q13510).
T1 sequence (Q13510 whole entry): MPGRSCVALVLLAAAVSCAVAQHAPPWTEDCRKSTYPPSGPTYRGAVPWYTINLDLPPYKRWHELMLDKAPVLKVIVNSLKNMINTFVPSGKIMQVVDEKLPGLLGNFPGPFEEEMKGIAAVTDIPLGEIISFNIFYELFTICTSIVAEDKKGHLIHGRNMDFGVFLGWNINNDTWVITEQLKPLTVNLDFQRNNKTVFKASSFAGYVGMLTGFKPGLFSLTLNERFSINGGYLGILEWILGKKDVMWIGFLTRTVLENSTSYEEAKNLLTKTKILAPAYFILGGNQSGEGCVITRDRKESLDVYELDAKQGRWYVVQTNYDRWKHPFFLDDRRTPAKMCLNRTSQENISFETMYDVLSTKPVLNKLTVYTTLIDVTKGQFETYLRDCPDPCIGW
Briefly: Non-competitive inhibition of human acid ceramidase.

As a reminder, the Ki is the dissociation constant of the complex between target and ligand, obtained from inhibition or displacement. Read a low Ki as higher affinity. Consider `O=C(NCCCCc1ccccc1)n1c(=O)oc2ccccc21`, for which the affinity corresponds to a Ki of 64 nM.
